Test results published in patent US20230158084A1, “PROBIOTICS, METABOLITES, AND USES THEREOF” (California Institute of Technology, priority 2018, published 2023).
“Also recorded” adds a separate entry of the source.

Experiments:
BTBR mice [1] = assay: Marble burying (MB), BTBR mice given metabolites; type: in vivo, mouse; conditions: BTBR offspring; 10 mM in drinking water before mating and throughout lifetime (prenatal administration); vs untreated vehicle controls
Procedure: FIGS. 5A-D are a series of drawings illustrating that differential metabolites impact ASD-relevant behaviors in SPF mice in accordance with some embodiments herein. FIG. 5A: The abundance of select metabolites in the offspring microbiome is correlated with behavior of male offspring. Spearman correlation between the microbiome and mouse behavior, by donor (See FIGS. 1A-0). […] Color scale denotes Spearman ρ. […] Groups of mice were orally administered 10 mM Taurine or 5AV in drinking water before mating, and throughout their lifetime. Offspring were tested by marble burying, direct social interaction, and open field tests, and compared to untreated vehicle controls. Results are aggregated from 2 independent experiments. NControl=42, […]=52, NTaurine=36. Bar plots denote mean and S.E.M. Hypothesis on differences in means were tested by ANOVA on trimmed means (10%) and subsequent posthoc tests. FIGS. 5E-L: qPCR of BTBR brains after 5AV and taurine administration. Results are aggregated from 2 independent experiments. Hypothesis on differences in means were tested by ANOVA on trimmed means (10%) and subsequent posthoc tests. […] The number of buried marbles (50% or more covered) was then recorded and photographed for reference. […] As such, it will be appreciated that at a given stage of development, some molecules may readily pass through the blood brain barrier, while others may not.

BTBR mice [2] = assay: Direct social interaction (DSI) test, BTBR mice given metabolites; type: in vivo, mouse; conditions: BTBR offspring; 10 mM in drinking water before mating and throughout lifetime (prenatal administration); vs untreated vehicle controls
Procedure: FIGS. 5A-D are a series of drawings illustrating that differential metabolites impact ASD-relevant behaviors in SPF mice in accordance with some embodiments herein. FIG. 5A: The abundance of select metabolites in the offspring microbiome is correlated with behavior of male offspring. Spearman correlation between the microbiome and mouse behavior, by donor (See FIGS. 1A-0). […] Color scale denotes Spearman ρ. […] Groups of mice were orally administered 10 mM Taurine or 5AV in drinking water before mating, and throughout their lifetime. Offspring were tested by marble burying, direct social interaction, and open field tests, and compared to untreated vehicle controls. […] Social Behavior (SI)-direct social interaction (DSI) test-As a more sensitive measure for sociability, the direct social interaction test was also used, where a mouse is allowed to interact with a stimulus mouse while the interaction is being recorded. Each mouse was introduced to a fresh empty cage and allowed to habituate for 10 minutes; grooming behavior was scored for the last five minutes of this period. […] A blinded observer scored videos for any social approach, aggression, or grooming behavior […] using the ETHOM software (Shih and Mok, 2000). […] As such, it will be appreciated that at a given stage of development, some molecules may readily pass through the blood brain barrier, while others may not.

GABA receptor = conditions: literature statement; cited from earlier work

| SMILES | repetitive behavior, as measured by marble burying (BTBR mice [1]) | sociability / social duration (direct social interaction) (BTBR mice [2]) | GABA receptor agonism (GABA receptor) |
| --- | --- | --- | --- |
| NCCCCC(=O)O [5AV, 5-Aminovaleric acid] | reduced repetitive behavior | increases sociability | weak GABA receptor agonist |
| NCCS(=O)(=O)O [taurine] | significantly reduces repetitive behavior in male mice | trend toward increasing social duration in all mice; also recorded: increases sociability | weak GABA agonist |
